In the NIST ThermoML archive (doi:10.1021/acs.jced.6b00269):
± gives the expanded uncertainty stated by the source.

Details: for viscosity / mass density: 101.33 kPa, Liquid; for viscosity: Cone and plate viscometry; for mass density: Vibrating tube method; for Normal melting temperature: Crystal, DTA; for Glass transition temperature: DSC

CCCCCCCC[P+](CC)(CC)CC.O=[N+]([O-])c1c[n-]cn1 [triethyloctylphosphonium 4-nitroimidazolide]
Details	Normal melting temperature [°C]	mass density [kg/m3]	viscosity [mPa·s]
–	-28 ± 2	–	–
278.15 K	–	–	1220 ± 110
283.15 K	–	1037.8 ± 5.8	804 ± 68
288.15 K	–	1034.8 ± 5.8	547 ± 44
293.15 K	–	1031.8 ± 5.8	382 ± 29
295.15 K	–	1030.6 ± 5.7	–
298.15 K	–	1028.8 ± 5.7	276 ± 20
303.15 K	–	1025.8 ± 5.7	204 ± 14
308.15 K	–	1022.9 ± 5.7	155 ± 11
313.15 K	–	1020.1 ± 5.6	120 ± 8
318.15 K	–	1017.2 ± 5.6	95 ± 6
323.15 K	–	1014.3 ± 5.6	76 ± 5
328.15 K	–	1011.4 ± 5.5	62 ± 4
333.15 K	–	1008.5 ± 5.5	52 ± 3
338.15 K	–	1005.7 ± 5.5	–
343.15 K	–	1002.8 ± 5.4	–
348.15 K	–	1000 ± 5.4	–
353.15 K	–	997.1 ± 5.4	–

CCCCCCCC[P+](CC)(CC)CC.O=[N+]([O-])c1cn[n-]c1 [triethyloctylphosphonium 4-nitropyrazolide]
Details	Glass transition temperature [°C]	Normal melting temperature [°C]	mass density [kg/m3]	viscosity [mPa·s]
–	-72 ± 2	5 ± 2	–	–
278.15 K	–	–	–	1100 ± 100
283.15 K	–	–	1040.1 ± 5.9	716 ± 60
288.15 K	–	–	1037 ± 5.8	480 ± 38
293.15 K	–	–	1033.9 ± 5.8	333 ± 25
295.15 K	–	–	1032.7 ± 5.8	–
298.15 K	–	–	1030.9 ± 5.7	238 ± 17
303.15 K	–	–	1027.9 ± 5.7	175 ± 12
308.15 K	–	–	1024.9 ± 5.7	133 ± 9
313.15 K	–	–	1022 ± 5.6	103 ± 7
318.15 K	–	–	1019 ± 5.6	81 ± 5
323.15 K	–	–	1016.1 ± 5.6	65 ± 4
328.15 K	–	–	1013.2 ± 5.5	53 ± 4
333.15 K	–	–	1010.2 ± 5.5	–
338.15 K	–	–	1007.3 ± 5.5	–
343.15 K	–	–	1004.4 ± 5.4	–
348.15 K	–	–	1001.5 ± 5.4	–
353.15 K	–	–	998.6 ± 5.4	–

CCCCCCCC[P+](CC)(CC)CC.O=S(=O)([N-]S(=O)(=O)C(F)(F)F)C(F)(F)F [triethyloctylphosphonium bis(trifluoromethylsulfonyl)imide]
Details	mass density [kg/m3]	viscosity [mPa·s]
278.15 K	–	379 ± 29
283.15 K	1256.3 ± 8.6	268 ± 20
288.15 K	1252.2 ± 8.5	194 ± 14
293.15 K	1248.1 ± 8.5	145 ± 10
295.15 K	1246.6 ± 8.5	–
298.15 K	1244.2 ± 8.4	111 ± 8
303.15 K	1240.2 ± 8.4	87 ± 6
308.15 K	1236.2 ± 8.3	73 ± 5
313.15 K	1232.2 ± 8.3	57 ± 4
318.15 K	1228.2 ± 8.2	–
323.15 K	1224.2 ± 8.2	–
328.15 K	1220.2 ± 8.1	–
333.15 K	1216.3 ± 8.1	–
338.15 K	1212.3 ± 8	–
343.15 K	1208.4 ± 7.9	–
348.15 K	1204.4 ± 7.9	–
353.15 K	1200.5 ± 7.8	–

CCCCCCCCCCCCCC[P+](CCCCCC)(CCCCCC)CCCCCC.Cc1ncc([N+](=O)[O-])[n-]1 [trihexyl(tetradecyl)phosphonium 2-methyl-5-nitroimidazolide]
Details	Glass transition temperature [°C]	mass density [kg/m3]	viscosity [mPa·s]
–	-79 ± 2	–	–
278.15 K	–	–	5890 ± 650
283.15 K	–	948.1 ± 4.9	3730 ± 390
288.15 K	–	945.1 ± 4.9	2420 ± 240
293.15 K	–	941.9 ± 4.8	1620 ± 150
295.15 K	–	940.6 ± 4.8	–
298.15 K	–	938.7 ± 4.8	1110 ± 100
303.15 K	–	935.7 ± 4.8	786 ± 66
308.15 K	–	932.8 ± 4.8	569 ± 46
313.15 K	–	929.8 ± 4.7	420 ± 32
318.15 K	–	926.9 ± 4.7	317 ± 24
323.15 K	–	924 ± 4.7	244 ± 18
328.15 K	–	921.1 ± 4.7	192 ± 13
333.15 K	–	918.2 ± 4.6	153 ± 11
338.15 K	–	915.3 ± 4.6	125 ± 8
343.15 K	–	912.5 ± 4.6	–
348.15 K	–	909.6 ± 4.6	–
353.15 K	–	906.8 ± 4.6	–

CCCCCCCCCCCCCC[P+](CCCCCC)(CCCCCC)CCCCCC.Clc1nc[n-]c1Cl [trihexyl(tetradecyl)phosphonium 4,5-dichloroimidazolide]
Details	Glass transition temperature [°C]	mass density [kg/m3]	viscosity [mPa·s]
–	-64 ± 2	–	–
278.15 K	–	–	4040 ± 420
283.15 K	–	974.1 ± 5.1	2580 ± 260
288.15 K	–	970.8 ± 5.1	1680 ± 160
293.15 K	–	967.5 ± 5.1	1140 ± 100
295.15 K	–	966.2 ± 5.1	–
298.15 K	–	964.4 ± 5	789 ± 66
303.15 K	–	961.3 ± 5	566 ± 45
308.15 K	–	958.3 ± 5	415 ± 32
313.15 K	–	955.2 ± 4.9	308 ± 23
318.15 K	–	952.2 ± 4.9	234 ± 17
323.15 K	–	949.1 ± 4.9	182 ± 13
328.15 K	–	946.2 ± 4.9	144 ± 10
333.15 K	–	943.2 ± 4.8	116 ± 8
338.15 K	–	940.2 ± 4.8	–
343.15 K	–	937.2 ± 4.8	–
348.15 K	–	934.2 ± 4.8	–
353.15 K	–	931.3 ± 4.7	–

CCCCCCCCCCCCCC[P+](CCCCCC)(CCCCCC)CCCCCC.N#Cc1nc[n-]c1C#N [trihexyl(tetradecyl)phosphonium 4,5-dicyanoimidazolide]
Details	Glass transition temperature [°C]	mass density [kg/m3]	viscosity [mPa·s]
–	-78 ± 2	–	–
278.15 K	–	–	2490 ± 240
283.15 K	–	928.9 ± 4.7	1630 ± 150
288.15 K	–	925.7 ± 4.7	1090 ± 100
293.15 K	–	922.6 ± 4.7	754 ± 63
295.15 K	–	921.5 ± 4.7	–
298.15 K	–	919.7 ± 4.7	535 ± 43
303.15 K	–	916.8 ± 4.6	391 ± 30
308.15 K	–	913.9 ± 4.6	291 ± 21
313.15 K	–	911 ± 4.6	220 ± 16
318.15 K	–	908.1 ± 4.6	171 ± 12
323.15 K	–	905.2 ± 4.5	135 ± 9
328.15 K	–	902.4 ± 4.5	108 ± 7
333.15 K	–	899.6 ± 4.5	88 ± 6
338.15 K	–	896.7 ± 4.5	73 ± 5
343.15 K	–	893.9 ± 4.5	–
348.15 K	–	891 ± 4.4	–
353.15 K	–	888.2 ± 4.4	–

CCCCCCCCCCCCCC[P+](CCCCCC)(CCCCCC)CCCCCC.O=[N+]([O-])c1c[n-]cn1 [trihexyl(tetradecyl)phosphonium 4-nitroimidazolide]
Details	Glass transition temperature [°C]	mass density [kg/m3]	viscosity [mPa·s]
–	-66 ± 2	–	–
278.15 K	–	–	3380 ± 340
283.15 K	–	949.4 ± 4.9	2220 ± 210
288.15 K	–	946.3 ± 4.9	1500 ± 140
293.15 K	–	943.1 ± 4.8	1040 ± 91
295.15 K	–	941.8 ± 4.8	–
298.15 K	–	940.1 ± 4.8	735 ± 61
303.15 K	–	937.1 ± 4.8	533 ± 42
308.15 K	–	934.2 ± 4.8	396 ± 30
313.15 K	–	931.3 ± 4.7	298 ± 22
318.15 K	–	928.4 ± 4.7	230 ± 16
323.15 K	–	925.4 ± 4.7	180 ± 13
328.15 K	–	922.6 ± 4.7	144 ± 10
333.15 K	–	919.7 ± 4.7	117 ± 8
338.15 K	–	916.9 ± 4.6	96 ± 6
343.15 K	–	914 ± 4.6	80 ± 5
348.15 K	–	911.2 ± 4.6	–
353.15 K	–	908.3 ± 4.6	–
